Laboratory results published in PMC6274539, “Photoactivatable Caged Prodrugs of VEGFR-2 Kinase Inhibitors” (Molecules, 2016).

Experiments:
Assay in all cases: kinase profiling, radioactive filter binding assay
Assay type in all cases: biochemical
[1] = molecular target: TBK1 (Homo sapiens, UniProt Q9UHD2); details: 0.1 µM compound, assay duplicates; read-out: residual activity of TBK1, mean percentage activity
Experimental: (§1) The used method was a radioactive filter binding assay using ^33P ATP, for details see references. The substances were dissolved in DMSO at tested concentration of 0.1 µM. The mean percentage residual kinase activity and standard deviations of assay duplicates were determined. Analyses were performed by the International Center for Kinase Profiling at the University of Dundee, UK.

[2] = molecular target: EPH A2 (Homo sapiens, UniProt P29317); details: 0.1 µM compound, assay duplicates; read-out: residual activity of EPH A2, mean percentage activity
Experimental: as §1

[3] = molecular target: Lck (Homo sapiens, UniProt P06239); details: 0.1 µM compound, assay duplicates; read-out: residual activity of Lck, mean percentage activity
Experimental: as §1

[4] = molecular target: PKD1 (Homo sapiens, UniProt Q15139); details: 0.1 µM compound, assay duplicates; read-out: residual activity of PKD1, mean percentage activity
Experimental: as §1

[5] = molecular target: IKK epsilon (14231) (Homo sapiens, UniProt Q14164); details: 0.1 µM compound, assay duplicates; read-out: residual activity of IKK epsilon (14231), mean percentage activity
Experimental: as §1

[6] = molecular target: PLK1 (Homo sapiens, UniProt P53350); details: 0.1 µM compound, assay duplicates; read-out: residual activity of PLK1, mean percentage activity
Experimental: as §1

[7] = molecular target: PKA (Homo sapiens, UniProt P17612); details: 0.1 µM compound, assay duplicates; read-out: residual activity of PKA, mean percentage activity
Experimental: as §1

[8] = molecular target: SGK1 (Homo sapiens, UniProt O00141); details: 0.1 µM compound, assay duplicates; read-out: residual activity of SGK1, mean percentage activity
Experimental: as §1

[9] = molecular target: Src (Homo sapiens, UniProt P12931); details: 0.1 µM compound, assay duplicates; read-out: residual activity of Src, mean percentage activity
Experimental: as §1

[10] = molecular target: MSK1 (Homo sapiens, UniProt O75582); details: 0.1 µM compound, assay duplicates; read-out: residual activity of MSK1, mean percentage activity
Experimental: as §1

[11] = molecular target: ERK2 (Homo sapiens, UniProt P28482); details: 0.1 µM compound, assay duplicates; read-out: residual activity of ERK2, mean percentage activity
Experimental: as §1

[12] = molecular target: FGF-R1 (Homo sapiens, UniProt P11362); details: 0.1 µM compound, assay duplicates; read-out: residual activity of FGF-R1, mean percentage activity
Experimental: as §1

[13] = molecular target: GSK3b (Homo sapiens, UniProt P49841); details: 0.1 µM compound, assay duplicates; read-out: residual activity of GSK3b, mean percentage activity
Experimental: as §1

[14] = molecular target: p38g MAPK (Homo sapiens, UniProt P53778); details: 0.1 µM compound, assay duplicates; read-out: residual activity of p38g MAPK, mean percentage activity
Experimental: as §1

[15] = molecular target: CDK2-Cyclin A (Homo sapiens, UniProt P24941); details: 0.1 µM compound, assay duplicates; read-out: residual activity of CDK2-Cyclin A, mean percentage activity
Experimental: as §1

[16] = molecular target: MELK (Homo sapiens, UniProt Q14680); details: 0.1 µM compound, assay duplicates; read-out: residual activity of MELK, mean percentage activity
Experimental: as §1

[17] = molecular target: CSK (Homo sapiens, UniProt P41240); details: 0.1 µM compound, assay duplicates; read-out: residual activity of CSK, mean percentage activity
Experimental: as §1

[18] = molecular target: IKKe (Homo sapiens, UniProt Q14164); details: 0.1 µM compound, assay duplicates; read-out: residual activity of IKKe, mean percentage activity
Experimental: as §1

[19] = molecular target: PKBa (Homo sapiens, UniProt P31749); details: 0.1 µM compound, assay duplicates; read-out: residual activity of PKBa, mean percentage activity
Experimental: as §1

[20] = molecular target: PRK2 (Homo sapiens, UniProt Q16513); details: 0.1 µM compound, assay duplicates; read-out: residual activity of PRK2, mean percentage activity
Experimental: as §1

[21] = molecular target: ROCK 2 (Homo sapiens, UniProt O75116); details: 0.1 µM compound, assay duplicates; read-out: residual activity of ROCK 2, mean percentage activity
Experimental: as §1

[22] = molecular target: NEK6 (Homo sapiens, UniProt Q9HC98); details: 0.1 µM compound, assay duplicates; read-out: residual activity of NEK6, mean percentage activity
Experimental: as §1

[23] = molecular target: PKCa (Homo sapiens, UniProt P17252); details: 0.1 µM compound, assay duplicates; read-out: residual activity of PKCa, mean percentage activity
Experimental: as §1

[24] = molecular target: MKK1 (Homo sapiens, UniProt Q02750); details: 0.1 µM compound, assay duplicates; read-out: residual activity of MKK1, mean percentage activity
Experimental: as §1

[25] = molecular target: ERK1 (Homo sapiens, UniProt P27361); details: 0.1 µM compound, assay duplicates; read-out: residual activity of ERK1, mean percentage activity
Experimental: as §1

[26] = molecular target: JNK2 (Homo sapiens, UniProt P45984); details: 0.1 µM compound, assay duplicates; read-out: residual activity of JNK2, mean percentage activity
Experimental: as §1

[27] = molecular target: MST4 (Homo sapiens, UniProt Q9P289); details: 0.1 µM compound, assay duplicates; read-out: residual activity of MST4, mean percentage activity
Experimental: as §1

[28] = molecular target: MST2 (Homo sapiens, UniProt Q13188); details: 0.1 µM compound, assay duplicates; read-out: residual activity of MST2, mean percentage activity
Experimental: as §1

Chain of PLK1 (P53350 whole entry): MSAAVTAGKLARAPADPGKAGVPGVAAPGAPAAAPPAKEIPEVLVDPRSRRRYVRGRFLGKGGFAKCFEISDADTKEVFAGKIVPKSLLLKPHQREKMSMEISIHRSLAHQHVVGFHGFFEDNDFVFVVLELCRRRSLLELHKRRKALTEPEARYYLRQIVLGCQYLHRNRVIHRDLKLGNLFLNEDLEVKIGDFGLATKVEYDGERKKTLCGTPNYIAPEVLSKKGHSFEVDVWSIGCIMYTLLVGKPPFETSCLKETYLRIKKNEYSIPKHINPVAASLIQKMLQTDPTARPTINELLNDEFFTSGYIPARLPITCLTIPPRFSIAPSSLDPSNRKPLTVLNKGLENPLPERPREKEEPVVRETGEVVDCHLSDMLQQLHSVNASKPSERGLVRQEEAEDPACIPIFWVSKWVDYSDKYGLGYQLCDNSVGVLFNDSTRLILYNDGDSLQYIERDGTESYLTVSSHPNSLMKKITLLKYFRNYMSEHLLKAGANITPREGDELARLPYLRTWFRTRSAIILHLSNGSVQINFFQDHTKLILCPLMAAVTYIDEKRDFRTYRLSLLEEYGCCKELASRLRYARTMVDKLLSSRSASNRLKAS
Chain of Lck (P06239 whole entry): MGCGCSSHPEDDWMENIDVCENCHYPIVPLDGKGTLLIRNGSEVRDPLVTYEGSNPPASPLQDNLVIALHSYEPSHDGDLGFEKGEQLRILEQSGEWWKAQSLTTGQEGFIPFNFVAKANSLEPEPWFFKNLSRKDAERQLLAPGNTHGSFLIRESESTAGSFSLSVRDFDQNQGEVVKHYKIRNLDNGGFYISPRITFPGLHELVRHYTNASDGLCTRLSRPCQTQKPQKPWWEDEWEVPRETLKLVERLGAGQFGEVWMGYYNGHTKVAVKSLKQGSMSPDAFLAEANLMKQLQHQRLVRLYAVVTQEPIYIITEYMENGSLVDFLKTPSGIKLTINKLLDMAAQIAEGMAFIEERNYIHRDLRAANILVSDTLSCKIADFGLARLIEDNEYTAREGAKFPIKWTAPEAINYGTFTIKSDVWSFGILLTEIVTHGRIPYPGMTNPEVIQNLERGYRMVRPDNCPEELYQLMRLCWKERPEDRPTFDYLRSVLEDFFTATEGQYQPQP
Chain of PKBa (P31749 whole entry): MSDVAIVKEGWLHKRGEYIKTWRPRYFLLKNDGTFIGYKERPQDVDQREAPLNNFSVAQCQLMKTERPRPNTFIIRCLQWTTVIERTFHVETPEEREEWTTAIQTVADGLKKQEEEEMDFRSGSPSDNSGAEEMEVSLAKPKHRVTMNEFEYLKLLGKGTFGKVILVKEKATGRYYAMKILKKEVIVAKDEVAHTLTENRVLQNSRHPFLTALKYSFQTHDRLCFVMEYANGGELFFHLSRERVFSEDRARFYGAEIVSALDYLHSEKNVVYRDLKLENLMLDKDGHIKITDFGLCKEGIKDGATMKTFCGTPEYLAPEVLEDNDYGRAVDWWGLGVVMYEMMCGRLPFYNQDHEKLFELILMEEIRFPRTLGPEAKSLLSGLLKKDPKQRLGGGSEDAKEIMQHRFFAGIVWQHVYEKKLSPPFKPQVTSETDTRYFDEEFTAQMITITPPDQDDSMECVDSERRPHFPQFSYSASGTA
Chain of FGF-R1 (P11362 22-822): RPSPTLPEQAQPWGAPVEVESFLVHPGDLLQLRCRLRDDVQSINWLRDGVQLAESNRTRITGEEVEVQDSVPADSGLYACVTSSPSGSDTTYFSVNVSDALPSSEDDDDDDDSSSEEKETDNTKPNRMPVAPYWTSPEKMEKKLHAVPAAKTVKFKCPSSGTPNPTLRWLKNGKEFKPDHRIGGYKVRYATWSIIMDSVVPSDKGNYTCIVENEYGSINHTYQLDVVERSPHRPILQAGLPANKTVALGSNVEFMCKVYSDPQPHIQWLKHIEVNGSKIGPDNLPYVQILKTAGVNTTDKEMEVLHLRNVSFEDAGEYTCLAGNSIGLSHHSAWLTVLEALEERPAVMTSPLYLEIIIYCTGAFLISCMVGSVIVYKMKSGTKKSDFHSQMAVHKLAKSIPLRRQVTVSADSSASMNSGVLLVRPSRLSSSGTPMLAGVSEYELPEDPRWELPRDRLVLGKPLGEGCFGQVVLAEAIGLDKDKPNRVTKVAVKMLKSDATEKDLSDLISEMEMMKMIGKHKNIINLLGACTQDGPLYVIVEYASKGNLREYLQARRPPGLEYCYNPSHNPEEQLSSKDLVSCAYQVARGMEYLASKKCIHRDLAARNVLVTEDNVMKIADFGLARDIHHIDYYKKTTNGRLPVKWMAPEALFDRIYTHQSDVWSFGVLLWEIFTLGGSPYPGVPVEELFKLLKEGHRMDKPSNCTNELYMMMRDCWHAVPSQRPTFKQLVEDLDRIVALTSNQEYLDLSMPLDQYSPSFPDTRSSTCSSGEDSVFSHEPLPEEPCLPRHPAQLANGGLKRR
Chain of p38g MAPK (P53778 whole entry): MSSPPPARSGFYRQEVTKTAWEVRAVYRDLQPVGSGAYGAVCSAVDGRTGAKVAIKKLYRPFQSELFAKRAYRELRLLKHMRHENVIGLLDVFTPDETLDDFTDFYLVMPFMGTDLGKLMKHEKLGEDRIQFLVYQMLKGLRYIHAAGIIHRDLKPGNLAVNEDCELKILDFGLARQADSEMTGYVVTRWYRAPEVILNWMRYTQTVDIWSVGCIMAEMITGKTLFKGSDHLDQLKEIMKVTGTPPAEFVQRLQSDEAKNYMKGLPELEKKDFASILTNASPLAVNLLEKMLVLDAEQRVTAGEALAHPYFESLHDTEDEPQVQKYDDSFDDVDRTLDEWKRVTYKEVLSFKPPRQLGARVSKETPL
Chain of MST2 (Q13188 whole entry): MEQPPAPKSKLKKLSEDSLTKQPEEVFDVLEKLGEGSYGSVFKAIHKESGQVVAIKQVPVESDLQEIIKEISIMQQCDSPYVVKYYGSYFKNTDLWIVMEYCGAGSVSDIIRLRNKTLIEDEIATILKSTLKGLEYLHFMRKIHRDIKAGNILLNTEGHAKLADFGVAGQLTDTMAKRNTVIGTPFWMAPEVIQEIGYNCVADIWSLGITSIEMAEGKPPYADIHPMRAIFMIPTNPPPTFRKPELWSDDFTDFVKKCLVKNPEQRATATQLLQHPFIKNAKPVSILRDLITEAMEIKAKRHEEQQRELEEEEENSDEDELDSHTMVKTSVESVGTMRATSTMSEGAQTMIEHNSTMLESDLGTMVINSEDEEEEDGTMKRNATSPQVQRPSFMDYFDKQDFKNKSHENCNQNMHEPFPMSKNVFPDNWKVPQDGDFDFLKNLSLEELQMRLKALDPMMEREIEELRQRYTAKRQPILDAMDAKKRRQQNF
Chain of CSK (P41240 whole entry): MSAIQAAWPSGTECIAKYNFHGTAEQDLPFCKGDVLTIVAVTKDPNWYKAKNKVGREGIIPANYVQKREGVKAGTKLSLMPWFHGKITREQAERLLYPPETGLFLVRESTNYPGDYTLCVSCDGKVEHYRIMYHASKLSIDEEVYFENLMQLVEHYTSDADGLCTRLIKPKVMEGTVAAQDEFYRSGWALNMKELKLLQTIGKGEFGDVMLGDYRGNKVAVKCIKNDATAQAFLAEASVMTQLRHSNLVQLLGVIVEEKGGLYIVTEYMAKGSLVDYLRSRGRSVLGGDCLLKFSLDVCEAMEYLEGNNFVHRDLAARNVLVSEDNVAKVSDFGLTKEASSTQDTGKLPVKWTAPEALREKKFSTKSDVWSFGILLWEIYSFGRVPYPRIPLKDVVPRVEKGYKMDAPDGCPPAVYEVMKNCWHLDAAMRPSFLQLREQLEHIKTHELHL
Chain of SGK1 (O00141 whole entry): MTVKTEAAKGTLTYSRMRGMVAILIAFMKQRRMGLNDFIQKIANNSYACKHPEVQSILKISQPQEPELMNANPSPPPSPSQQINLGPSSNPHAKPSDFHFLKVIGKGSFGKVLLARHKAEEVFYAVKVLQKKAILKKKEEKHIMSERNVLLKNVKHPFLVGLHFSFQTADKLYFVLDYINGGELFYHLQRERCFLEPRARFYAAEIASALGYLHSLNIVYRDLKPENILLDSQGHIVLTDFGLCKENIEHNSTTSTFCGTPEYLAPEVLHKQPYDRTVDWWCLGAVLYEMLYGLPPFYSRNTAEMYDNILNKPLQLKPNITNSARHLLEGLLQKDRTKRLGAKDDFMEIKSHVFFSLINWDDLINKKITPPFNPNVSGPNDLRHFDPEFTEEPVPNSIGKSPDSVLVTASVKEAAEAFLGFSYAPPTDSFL
Chain of GSK3b (P49841 whole entry): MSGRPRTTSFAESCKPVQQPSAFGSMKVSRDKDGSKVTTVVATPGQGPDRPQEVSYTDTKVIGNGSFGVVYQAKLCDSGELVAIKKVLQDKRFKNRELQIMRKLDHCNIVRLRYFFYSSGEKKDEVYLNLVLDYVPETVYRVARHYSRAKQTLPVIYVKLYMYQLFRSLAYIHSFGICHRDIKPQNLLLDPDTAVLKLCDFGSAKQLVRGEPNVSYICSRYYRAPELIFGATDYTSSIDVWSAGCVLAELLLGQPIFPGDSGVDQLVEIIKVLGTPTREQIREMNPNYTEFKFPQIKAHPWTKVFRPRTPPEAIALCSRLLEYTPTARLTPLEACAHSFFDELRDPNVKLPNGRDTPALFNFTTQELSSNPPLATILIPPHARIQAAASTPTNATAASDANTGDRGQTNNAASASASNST
Chain of MST4 (Q9P289 whole entry): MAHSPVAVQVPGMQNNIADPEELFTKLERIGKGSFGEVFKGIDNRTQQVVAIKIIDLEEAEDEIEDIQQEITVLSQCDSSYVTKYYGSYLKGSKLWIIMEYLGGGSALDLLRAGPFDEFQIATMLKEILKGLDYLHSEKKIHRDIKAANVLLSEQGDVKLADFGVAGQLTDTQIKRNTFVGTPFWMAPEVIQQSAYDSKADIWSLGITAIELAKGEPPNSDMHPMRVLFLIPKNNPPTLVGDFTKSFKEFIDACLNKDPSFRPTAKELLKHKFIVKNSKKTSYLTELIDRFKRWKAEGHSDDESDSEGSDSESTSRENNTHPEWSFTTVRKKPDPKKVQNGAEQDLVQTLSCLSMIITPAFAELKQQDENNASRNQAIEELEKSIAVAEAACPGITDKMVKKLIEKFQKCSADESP

Structure (SMILES) | remaining activity at 0.1 µM [1] | remaining activity at 0.1 µM [2] | remaining activity at 0.1 µM [3] | remaining activity at 0.1 µM [4] | remaining activity at 0.1 µM [5] | remaining activity at 0.1 µM [6] | remaining activity at 0.1 µM [7] | remaining activity at 0.1 µM [8] | remaining activity at 0.1 µM [9] | remaining activity at 0.1 µM [10] | remaining activity at 0.1 µM [11] | remaining activity at 0.1 µM [12] | remaining activity at 0.1 µM [13] | remaining activity at 0.1 µM [14] | remaining activity at 0.1 µM [15] | remaining activity at 0.1 µM [16] | remaining activity at 0.1 µM [17] | remaining activity at 0.1 µM [18] | remaining activity at 0.1 µM [19] | remaining activity at 0.1 µM [20] | also measured
COc1cc2c3c(c4c5ccccc5[nH]c4c2c(OC)c1OC)C(=O)NC3=O [Compound 3, 5,6,7-Trimethoxybenzo[a]pyrrolo[3,4-c]carbazole-1,3(2H,8H)-dione] | 85% | 109% | 91% | 60% | 94% | 49% | 90% | 52% | 86% | 55% | 93% | 92% | 5% | 86% | 28% | 55% | 99% | 63% | 81% | 52% | remaining activity at 0.1 µM [21]: 88%; remaining activity at 0.1 µM [22]: 104%; remaining activity at 0.1 µM [23]: 90%; remaining activity at 0.1 µM [24]: 67%; remaining activity at 0.1 µM [25]: 91%; remaining activity at 0.1 µM [26]: 93%; remaining activity at 0.1 µM [27]: 69%; remaining activity at 0.1 µM [28]: 24%
COc1cc(C2=C(c3c[nH]c4ccccc34)C(=O)NC2=O)cc(OC)c1OC [Compound 1, 3-(1H-Indol-3-yl)-4-(3,4,5-trimethoxyphenyl)-1H-pyrrole-2,5-dione] | 87% | 104% | 91% | 100% | 85% | 79% | 93% | 75% | 81% | 69% | 94% | 69% | 21% | 91% | 59% | 74% | 138% | 80% | 66% | 84% | remaining activity at 0.1 µM [21]: 97%; remaining activity at 0.1 µM [22]: 96%; remaining activity at 0.1 µM [23]: 113%; remaining activity at 0.1 µM [24]: 54%; remaining activity at 0.1 µM [25]: 100%; remaining activity at 0.1 µM [26]: 78%; remaining activity at 0.1 µM [27]: 94%; remaining activity at 0.1 µM [28]: 53%
